Assays:
Format in all cases: functional, organism-based
[1] = tested on: Leishmania amazonensis; experiment: In vitro for leishmanicidal activity against Leishmania amazonensis (PH8) at the concentration of 10 ug/mL.
[2] = tested on: Leishmania braziliensis; experiment: Tested in vitro for leishmanicidal activity against Leishmania brasiliensis (2903) at the concentration of 10 ug/mL;+ indicates Less than 70% lysis of parasites
[3] = tested on: Leishmania braziliensis; experiment: Tested in vitro for leishmanicidal activity against Leishmania brasiliensis (2903) at the concentration of 25 ug/mL;++ indicates 80-90% lysis of parasites
[4] = tested on: Leishmania donovani; experiment: In vitro for leishmanicidal activity against Leishmania donovani (PP75) at the concentration of 100 ug/mL.
[5] = tested on: Leishmania donovani; experiment: Tested in vitro for leishmanicidal activity against Leishmania donovani (PP75) at the concentration of 25 ug/mL;++ indicates 80-90%lysis of parasites
[6] = tested on: Leishmania donovani; experiment: In vitro for leishmanicidal activity against Leishmania donovani (PP75) at the concentration of 10 ug/mL.
[7] = tested on: Leishmania amazonensis; experiment: In vitro for leishmanicidal activity against Leishmania amazonensis (PH8) at the concentration of 50 ug/mL.
[8] = tested on: Leishmania donovani; experiment: In vitro for leishmanicidal activity against Leishmania donovani (PP75) at the concentration of 50 ug/mL.
[9] = tested on: Leishmania amazonensis; experiment: In vitro for leishmanicidal activity against Leishmania amazonensis (PH8) at the concentration of 100 ug/mL.
[10] = tested on: Leishmania braziliensis; experiment: In vitro for leishmanicidal activity against Leishmania brasiliensis (2903) at the concentration of 100 ug/mL.
[11] = tested on: Leishmania amazonensis; experiment: Tested in vitro for leishmanicidal activity against Leishmania amazonensis (PH8) at the concentration of 25 ug/mL;++ indicates 80-90% lysis of parasites
[12] = tested on: Leishmania donovani; experiment: Tested in vitro for leishmanicidal activity against Leishmania donovani (PP75) at the concentration of 10 ug/mL;++ indicates 80-90% lysis of parasites
[13] = tested on: Leishmania braziliensis; experiment: Tested in vitro for leishmanicidal activity against Leishmania brasiliensis (2903) at the concentration of 10 ug/mL; ++ indicates 80-90% lysis of parasites
[14] = tested on: Leishmania amazonensis; experiment: Tested in vitro for leishmanicidal activity against Leishmania amazonensis (PH8) at the concentration of 10 ug/mL; ++ indicates 80-90% lysis of parasites
[15] = tested on: Leishmania amazonensis; experiment: Tested in vitro for leishmanicidal activity against Leishmania amazonensis (PH8) at the concentration of 25 ug/mL; ++ indicates 80-90% lysis of parasites
[16] = tested on: Leishmania donovani; experiment: Tested in vitro for leishmanicidal activity against Leishmania donovani (PP75) at the concentration of 25 ug/mL;++ indicates 80-90% lysis of parasites
[17] = tested on: Leishmania braziliensis; experiment: Tested in vitro for leishmanicidal activity against Leishmania brasiliensis (2903) at the concentration of 10 ug/mL; + indicatesLess than 70% lysis of parasites
[18] = tested on: Leishmania braziliensis; experiment: Tested in vitro for leishmanicidal activity against Leishmania brasiliensis (2903) at the concentration of 25 ug/mL; ++ indicates 80-90% lysis of parasites
[19] = tested on: Leishmania amazonensis; experiment: Tested in vitro for leishmanicidal activity against Leishmania amazonensis (PH8) at the concentration of 50 ug/mL; ++ indicates 80-90% lysis of parasites
[20] = tested on: Leishmania donovani; experiment: Tested in vitro for leishmanicidal activity against Leishmania donovani (PP75) at the concentration of 25 ug/mL;+ indicates Less than 70% lysis of parasites
[21] = tested on: Leishmania braziliensis; experiment: Tested in vitro for leishmanicidal activity against Leishmania brasiliensis (2903) at the concentration of 10 ug/mL; + indicates Less than 70% lysis of parasites
[22] = tested on: Leishmania donovani; experiment: Tested in vitro for leishmanicidal activity against Leishmania donovani (PP75) at the concentration of 50 ug/mL;++ indicates 80-90%lysis of parasites
[23] = tested on: Leishmania braziliensis; experiment: Tested in vitro for leishmanicidal activity against Leishmania brasiliensis (2903) at the concentration of 25 ug/mL; + indicates Less than 70% lysis of parasites
[24] = tested on: Leishmania amazonensis; experiment: Tested in vitro for leishmanicidal activity against Leishmania amazonensis (PH8) at the concentration of 25 ug/mL; + indicates less than 70% lysis of parasites
[25] = tested on: Leishmania braziliensis; experiment: Tested in vitro for leishmanicidal activity against Leishmania brasiliensis (2903) at the concentration of 50 ug/mL; ++ indicates 80-90%lysis of parasites
[26] = tested on: Leishmania braziliensis; experiment: Tested in vitro for leishmanicidal activity against Leishmania brasiliensis (2903) at the concentration of 25 ug/mL; ++ indicates 80-90%lysis of parasites
[27] = tested on: Leishmania braziliensis; experiment: In vitro for leishmanicidal activity against Leishmania brasiliensis (2903) at the concentration of 25 ug/mL.
[28] = tested on: Leishmania amazonensis; experiment: Tested in vitro for leishmanicidal activity against Leishmania amazonensis (PH8) at the concentration of 50 ug/mL; + indicates less than 70% lysis of parasites
[29] = tested on: Leishmania donovani; experiment: In vitro for leishmanicidal activity against Leishmania donovani (PP75) at the concentration of 25 ug/mL.
[30] = tested on: Leishmania donovani; experiment: Tested in vitro for leishmanicidal activity against Leishmania donovani (PP75) at the concentration of 10 ug/mL
[31] = tested on: Leishmania donovani; experiment: Tested in vitro for leishmanicidal activity against Leishmania donovani (PP75) at the concentration of 50 ug/mL;+ indicates Less than 70% lysis of parasites
[32] = tested on: Leishmania braziliensis; experiment: Tested in vitro for leishmanicidal activity against Leishmania brasiliensis (2903) at the concentration of 100 ug/mL;++ indicates 80-90% lysis of parasites
[33] = tested on: Leishmania amazonensis; experiment: In vitro for leishmanicidal activity against Leishmania amazonensis (PH8) at 25 ug/mL; No lysis of parasites.
[34] = tested on: Leishmania braziliensis; experiment: Tested in vitro for leishmanicidal activity against Leishmania brasiliensis (2903) at the concentration of 50 ug/mL;+ indicates Less than 70% lysis of parasites
[35] = tested on: Leishmania braziliensis; experiment: In vitro for leishmanicidal activity against Leishmania brasiliensis (2903) at the concentration of 10 ug/mL.
[36] = tested on: Leishmania donovani; experiment: Tested in vitro for leishmanicidal activity against Leishmania donovani (PP75) at the concentration of 10 ug/mL++ indicates 80-90% lysis of parasites
[37] = tested on: Leishmania braziliensis; experiment: Tested in vitro for leishmanicidal activity against Leishmania brasiliensis (2903) at the concentration of 10 ug/mL;++ indicates 80-90% lysis of parasites
[38] = tested on: Leishmania amazonensis; experiment: Tested in vitro for leishmanicidal activity against Leishmania amazonensis (PH8) at the concentration of 50 ug/mL;++ indicates 80-90% lysis of parasites
[39] = tested on: Leishmania donovani; experiment: Tested in vitro for leishmanicidal activity against Leishmania donovani (PP75) at the concentration of 50 ug/mL;++ indicates 80-90% lysis of parasites
[40] = tested on: Leishmania braziliensis; experiment: Tested in vitro for leishmanicidal activity against Leishmania brasiliensis (2903) at the concentration of 50 ug/mL;++ indicates 80-90% lysis of parasites
[41] = tested on: Leishmania braziliensis; experiment: Tested in vitro for leishmanicidal activity against Leishmania brasiliensis (2903) at the concentration of 50 ug/mL; + indicates Less than 70% lysis of parasites
[42] = tested on: Leishmania braziliensis; experiment: In vitro for leishmanicidal activity against Leishmania brasiliensis (2903) at the concentration of 50 ug/mL.

## CCCCCCCCCCCCCCC(CN(CC)CC)NC(=O)CCCC(=O)O (configuration not stated)
[1]
  Activity: 80-90% lysis of parasites
[2]
  Activity: 80-90% lysis of parasites
[3]
  Activity: 80-90% lysis of parasites
[4]
  Activity: +
[5]
  Activity: 80-90% lysis of parasites
[6]
  Activity: 80-90% lysis of parasites
[7]
  Activity: +
[8]
  Activity: +
[9]
  Activity: +
[10]
  Activity: +
[11]
  Activity: 80-90% lysis of parasites

## CCCCCCCCCCCCCCC(CO)NCC (configuration not stated)
[12]
  Activity: 80-90% lysis of parasites
[4]
  Activity: +
[13]
  Activity: 80-90% lysis of parasites
[7]
  Activity: +
[8]
  Activity: +
[9]
  Activity: +
[14]
  Activity: 80-90% lysis of parasites

## CCCCCCCCCCCCCCC(COCc1ccccc1)NCC (configuration not stated)
[1]
  Activity: 80-90% lysis of parasites
[4]
  Activity: +
[15]
  Activity: 80-90% lysis of parasites
[16]
  Activity: 80-90% lysis of parasites
[17]
  Activity: 80-90% lysis of parasites
[6]
  Activity: 80-90% lysis of parasites
[7]
  Activity: +
[8]
  Activity: 80-90% lysis of parasites
[9]
  Activity: +
[18]
  Activity: 80-90% lysis of parasites

## CCCCCCCCCCCCCCC(CO)NCC(=O)OCC (configuration not stated)
[1]
  Activity: 80-90% lysis of parasites
[4]
  Activity: +
[19]
  Activity: 80-90% lysis of parasites
[20]
  Activity: 80-90% lysis of parasites
[21]
  Activity: 80-90% lysis of parasites
[6]
  Activity: 80-90% lysis of parasites
[22]
  Activity: 80-90% lysis of parasites
[9]
  Activity: +
[23]
  Activity: 80-90% lysis of parasites
[24]
  Activity: 80-90% lysis of parasites
[25]
  Activity: 80-90% lysis of parasites

## CCCCCCCCCCCCCCC(CO)N(CC)CC (configuration not stated)
[1]
  Activity: 80-90% lysis of parasites
[26]
  Activity: 80-90% lysis of parasites
[4]
  Activity: +
[20]
  Activity: 80-90% lysis of parasites
[6]
  Activity: 80-90% lysis of parasites
[7]
  Activity: +
[8]
  Activity: +
[9]
  Activity: +
[24]
  Activity: 80-90% lysis of parasites

## CCCCCCCCCCCCCCC(N)CNCC(=O)O (configuration not stated)
[27]
  Activity: 80-90% lysis of parasites
[1]
  Activity: 80-90% lysis of parasites
[28]
  Activity: 80-90% lysis of parasites
[4]
  Activity: +
[29]
  Activity: 80-90% lysis of parasites
[30]
  Activity: 80-90% lysis of parasites
[31]
  Activity: 80-90% lysis of parasites
[32]
  Activity: 80-90% lysis of parasites
[33]
  Activity: 80-90% lysis of parasites
[9]
  Activity: 80-90% lysis of parasites
[34]
  Activity: 80-90% lysis of parasites
[35]
  Activity: 80-90% lysis of parasites

## CCCCCCCCCCCCCCC(N)CN(CC(=O)OCC)CC(=O)OCC (configuration not stated)
[4]
  Activity: +
[7]
  Activity: +
[8]
  Activity: +
[36]
  Activity: 80-90% lysis of parasites
[9]
  Activity: +
[10]
  Activity: +
[14]
  Activity: 80-90% lysis of parasites
[37]
  Activity: 80-90% lysis of parasites

## CCCCCCCCCCCCCCC(CO)NC(=O)CCCC(=O)O (configuration not stated)
[1]
  Activity: 80-90% lysis of parasites
[4]
  Activity: +
[38]
  Activity: 80-90% lysis of parasites
[20]
  Activity: 80-90% lysis of parasites
[21]
  Activity: 80-90% lysis of parasites
[6]
  Activity: 80-90% lysis of parasites
[39]
  Activity: 80-90% lysis of parasites
[9]
  Activity: +
[23]
  Activity: 80-90% lysis of parasites
[24]
  Activity: 80-90% lysis of parasites
[40]
  Activity: 80-90% lysis of parasites

## CCCCCCCCCCCCCCC(CO)NCC(=O)O (configuration not stated)
[1]
  Activity: Less than 70% lysis of parasites
[28]
  Activity: Less than 70% lysis of parasites
[4]
  Activity: +
[30]
  Activity: Less than 70% lysis of parasites
[31]
  Activity: Less than 70% lysis of parasites
[20]
  Activity: Less than 70% lysis of parasites
[41]
  Activity: Less than 70% lysis of parasites
[9]
  Activity: +
[23]
  Activity: Less than 70% lysis of parasites
[24]
  Activity: Less than 70% lysis of parasites
[35]
  Activity: Less than 70% lysis of parasites

## CCCCCCCCCCCCCCC(CN(CC(=O)OCC)CC(=O)OCC)NC(=O)OC(C)(C)C (configuration not stated)
[27]
  Activity: 80-90% lysis of parasites
[1]
  Activity: 80-90% lysis of parasites
[4]
  Activity: 80-90% lysis of parasites
[29]
  Activity: 80-90% lysis of parasites
[30]
  Activity: 80-90% lysis of parasites
[32]
  Activity: 80-90% lysis of parasites
[33]
  Activity: 80-90% lysis of parasites
[7]
  Activity: 80-90% lysis of parasites
[8]
  Activity: 80-90% lysis of parasites
[42]
  Activity: 80-90% lysis of parasites
[9]
  Activity: 80-90% lysis of parasites
[35]
  Activity: 80-90% lysis of parasites

— ChEMBL document CHEMBL1135076, “Leishmanicidal activity of some aliphatic diamines and amino-alcohols” (Bioorg Med Chem Lett, 2002)
